In PubChem BioAssay AID248 (DTP/NCI, 2004):
“And” between values parts separate entries of the source, which are not always exact repeats. Equal entries are not always repeated. Toxic doses and inconclusive results are not listed. Cut-off read from the data, not from the text of the source: active = T/C of 150% or more; inactive = T/C below 125%.

Tested on: L1210 leukemia ip in BDF1 mice, survival T/C
Experiment: NCI In Vivo Anticancer Drug Screen. Data for tumor model L1210 Leukemia (intraperitoneal) in B6D2F1 (BDF1) mice
Conditions: endpoint: mean survival time, higher = longer survival
In short: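 Read-out is survival time, reported as the treated-group measurement over the vehicle-control measurement.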

[1] = dose: 100.0 mg/kg/injection, schedule: Q01DX009 (ip), vehicle: saline with Tween-80
[2] = dose: 100.0 mg/kg/injection, schedule: Q04DX003 (ip), vehicle: saline
[3] = dose: 200.0 mg/kg/injection, schedule: Q01DX009 (ip), vehicle: saline with Tween-80
[4] = dose: 400.0 mg/kg/injection, schedule: Q01DX009 (ip), vehicle: saline with Tween-80
[5] = dose: 100.0 mg/kg/injection, schedule: Q04DX003 (ip), vehicle: saline with Tween-80
[6] = dose: 200.0 mg/kg/injection, schedule: Q04DX003 (ip), vehicle: saline with Tween-80
[7] = dose: 400.0 mg/kg/injection, schedule: Q04DX003 (ip), vehicle: saline with Tween-80
[8] = dose: 100.0 mg/kg/injection, schedule: Q04DX002 (ip), vehicle: Klucel (hydroxypropylcellulose) (HPC)
[9] = dose: 200.0 mg/kg/injection, schedule: Q04DX002 (ip), vehicle: Klucel (hydroxypropylcellulose) (HPC)
[10] = dose: 400.0 mg/kg/injection, schedule: Q04DX002 (ip), vehicle: Klucel (hydroxypropylcellulose) (HPC)
[11] = dose: 25.0 mg/kg/injection, schedule: Q01DX009 (ip), vehicle: Klucel (hydroxypropylcellulose) (HPC)
[12] = dose: 100.0 mg/kg/injection, schedule: Q04DX003 (ip), vehicle: Klucel (hydroxypropylcellulose) (HPC)
[13] = dose: 200.0 mg/kg/injection, schedule: Q04DX003 (ip), vehicle: Klucel (hydroxypropylcellulose) (HPC)
[14] = dose: 400.0 mg/kg/injection, schedule: Q04DX003 (ip), vehicle: Klucel (hydroxypropylcellulose) (HPC)
[15] = dose: 100.0 mg/kg/injection, schedule: Q01DX001 (ip), vehicle: Klucel (hydroxypropylcellulose) (HPC)
[16] = dose: 200.0 mg/kg/injection, schedule: Q01DX001 (ip), vehicle: Klucel (hydroxypropylcellulose) (HPC)

Measured: T/C

CCOC(=O)c1ccc(NS(=O)(=O)c2c(C)cc(C)cc2C)cc1
inactive: [1] 104 % of control and 90 % of control | dose: 100.0 mg/kg/injection, schedule: Q04DX002 (ip), vehicle: saline with Tween-80 97 % of control and 103 % of control | [2] 95 % of control | [3] 95 % of control and 103 % of control | dose: 200.0 mg/kg/injection, schedule: Q04DX002 (ip), vehicle: saline with Tween-80 89 % of control and 91 % of control | dose: 200.0 mg/kg/injection, schedule: Q04DX003 (ip), vehicle: saline 96 % of control | [4] 95 % of control and 105 % of control | dose: 400.0 mg/kg/injection, schedule: Q04DX002 (ip), vehicle: saline with Tween-80 97 % of control and 87 % of control | dose: 400.0 mg/kg/injection, schedule: Q04DX003 (ip), vehicle: saline 91 % of control

O=C(O)/C(=C\c1ccncc1)c1cccc2ccccc12
inactive: [5] 100 % of control | dose: 200.0 mg/kg/injection, schedule: Q01DX009 (ip), vehicle: Klucel (hydroxypropylcellulose) (HPC) 105 % of control | [6] 98 % of control | dose: 400.0 mg/kg/injection, schedule: Q01DX009 (ip), vehicle: Klucel (hydroxypropylcellulose) (HPC) 102 % of control | [7] 91 % of control

Cc1ccccc1-n1cccc1C(=O)O
inactive: [8] 89 % of control | [9] 96 % of control | [10] 86 % of control

O=C1/C(=C\C=C\c2ccccc2)CCCC/C1=C\C=C\c1ccccc1
inactive: dose: 50.0 mg/kg/injection, schedule: Q01DX001 (ip), vehicle: carboxymethylcellulose (CMC) 97 % of control | dose: 100.0 mg/kg/injection, schedule: Q01DX001 (ip), vehicle: carboxymethylcellulose (CMC) 90 % of control | dose: 200.0 mg/kg/injection, schedule: Q01DX001 (ip), vehicle: carboxymethylcellulose (CMC) 97 % of control | dose: 400.0 mg/kg/injection, schedule: Q01DX001 (ip), vehicle: carboxymethylcellulose (CMC) 92 % of control

COc1ccc(/C=N/n2c3ccccc3c3ccccc32)cc1OCCCN(C)C
inactive: dose: 3.12 mg/kg/injection, schedule: Q01DX009 (ip), vehicle: saline 98 % of control | dose: 6.25 mg/kg/injection, schedule: Q01DX009 (ip), vehicle: saline 102 % of control | dose: 25.0 mg/kg/injection, schedule: Q04DX003 (ip), vehicle: alcohol 93 % of control | dose: 50.0 mg/kg/injection, schedule: Q04DX003 (ip), vehicle: alcohol 93 % of control

COC(CCC#N)c1ccccc1 (stereo unspecified)
inactive: [1] 97 % of control | [5] 105 % of control | [3] 100 % of control | [6] 97 % of control | [4] 101 % of control | [7] 102 % of control

CNc1nc2c(N)ncnc2n1C1OC(CO)C(O)C1O (stereo unspecified)
inactive: dose: 12.5 mg/kg/injection, schedule: Q04DX002 (ip), vehicle: saline 100 % of control | dose: 25.0 mg/kg/injection, schedule: Q04DX002 (ip), vehicle: saline 103 % of control | dose: 25.0 mg/kg/injection, schedule: Q04DX002 (ip), vehicle: suspension in saline 104 % of control | dose: 50.0 mg/kg/injection, schedule: Q01DX001 (ip), vehicle: saline 104 % of control | dose: 50.0 mg/kg/injection, schedule: Q04DX002 (ip), vehicle: saline 113 % of control | dose: 50.0 mg/kg/injection, schedule: Q04DX002 (ip), vehicle: suspension in saline 106 % of control | dose: 100.0 mg/kg/injection, schedule: Q01DX001 (ip), vehicle: saline 110 % of control | dose: 100.0 mg/kg/injection, schedule: Q04DX002 (ip), vehicle: suspension in saline 106 % of control

CN(C)c1ccc(/C=C\c2cc(/C=C/c3ccc(N(C)C)cc3)c([N+](=O)[O-])cc2[N+](=O)[O-])cc1
inactive: dose: 75.0 mg/kg/injection, schedule: Q01DX001 (ip), vehicle: saline 98 % of control and 89 % of control | dose: 150.0 mg/kg/injection, schedule: Q01DX001 (ip), vehicle: saline 86 % of control | dose: 300.0 mg/kg/injection, schedule: Q01DX001 (ip), vehicle: saline 95 % of control and 101 % of control

CN(C)/N=C1\C(=O)Nc2ccccc21
inactive: [11] 101 % of control | dose: 50.0 mg/kg/injection, schedule: Q01DX009 (ip), vehicle: Klucel (hydroxypropylcellulose) (HPC) 117 % of control | dose: 50.0 mg/kg/injection, schedule: Q04DX003 (ip), vehicle: Klucel (hydroxypropylcellulose) (HPC) 104 % of control | dose: 100.0 mg/kg/injection, schedule: Q01DX009 (ip), vehicle: Klucel (hydroxypropylcellulose) (HPC) 102 % of control and 103 % of control | [12] 106 % of control | [13] 97 % of control | [14] 103 % of control

c1ccc([C]([Hg][C](=C(c2ccccc2)c2ccccc2)c2ccccc2)=C(c2ccccc2)c2ccccc2)cc1
inactive: dose: 50.0 mg/kg/injection, schedule: Q01DX001 (ip), vehicle: Klucel (hydroxypropylcellulose) (HPC) 95 % of control | [15] 88 % of control | [16] 90 % of control

Cc1ccc(S(=O)(=O)OCC2OCC(O)C(O)C2O)cc1 (stereo unspecified)
inactive: [5] 86 % of control | [6] 86 % of control | [7] 86 % of control

COc1c(NC(=O)c2ccc([N+](=O)[O-])cc2)cccc1[N+](=O)[O-]
inactive: [8] 89 % of control | [9] 95 % of control | [10] 89 % of control

O=C(O)c1cccc(NC(=O)C(F)(F)F)c1
inactive: [15] 94 % of control | [12] 102 % of control | [16] 96 % of control | [13] 108 % of control | dose: 400.0 mg/kg/injection, schedule: Q01DX001 (ip), vehicle: Klucel (hydroxypropylcellulose) (HPC) 100 % of control | [14] 103 % of control

CC(=O)Nc1cccc(Cl)c1C
inactive: dose: 100.0 mg/kg/injection, schedule: Q01DX009 (ip), vehicle: saline sonified 97 % of control | dose: 100.0 mg/kg/injection, schedule: Q04DX003 (ip), vehicle: saline sonified 95 % of control | dose: 200.0 mg/kg/injection, schedule: Q01DX009 (ip), vehicle: saline sonified 91 % of control | dose: 200.0 mg/kg/injection, schedule: Q04DX003 (ip), vehicle: saline sonified 95 % of control | dose: 400.0 mg/kg/injection, schedule: Q01DX009 (ip), vehicle: saline sonified 91 % of control | dose: 400.0 mg/kg/injection, schedule: Q04DX003 (ip), vehicle: saline sonified 97 % of control

CCC(CCN(CC=C(C)C)CC=C(C)C)(C(N)=O)c1cccc2ccccc12 (stereo unspecified)
inactive: dose: 6.25 mg/kg/injection, schedule: Q01DX009 (ip), vehicle: Klucel (hydroxypropylcellulose) (HPC) 96 % of control | dose: 6.25 mg/kg/injection, schedule: Q04DX003 (ip), vehicle: Klucel (hydroxypropylcellulose) (HPC) 107 % of control | dose: 12.5 mg/kg/injection, schedule: Q01DX009 (ip), vehicle: Klucel (hydroxypropylcellulose) (HPC) 101 % of control | dose: 12.5 mg/kg/injection, schedule: Q04DX003 (ip), vehicle: Klucel (hydroxypropylcellulose) (HPC) 100 % of control | [11] 96 % of control | dose: 25.0 mg/kg/injection, schedule: Q04DX003 (ip), vehicle: Klucel (hydroxypropylcellulose) (HPC) 102 % of control

CC(C)N(C(=O)/C=C/C(=O)N(C(C)C)C(C)C)C(C)C
inactive: dose: 25.0 mg/kg/injection, schedule: Q04DX003 (ip), vehicle: saline 92 % of control | dose: 50.0 mg/kg/injection, schedule: Q04DX003 (ip), vehicle: saline 95 % of control | [5] 100 % of control | [2] 98 % of control | [6] 96 % of control
